Laboratory results: patent publication US10913727B2, “Modulators of the integrated stress pathway” (Calico Life Sciences LLC, priority 2016, dated 2021)

tested on: HEK293T cells carrying the ATF4 luciferase reporter; assay: ATF4-Luc assay, in vitro model of Vanishing Cell White Matter Disease (VWMD); type: cell-based; details: Homo sapiens, HEK-293T, 1 μg/mL tunicamycin, 7 hours, One Glo luminescence
How it was run: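 Stable HEK293T line with human ATF4 5′-UTR–firefly luciferase reporter treated with 1 μg/mL tunicamycin plus 200 nM compound for 7 h. Luminescence read; EC50 derived.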

First: Cc1cc(C(=O)NC23CCC(NC(=O)COc4ccc(Cl)c(F)c4)(CC2)CC3)on1 [Compound 444, N-{4-[2-(4-chloro-3-fluorophenoxy)acetamido]bicyclo[2.2.2]octan-1-yl}-3-methyl-1,2-oxazole-5-carboxamide]
Second: O=C(COc1ccc(Cl)c(F)c1)NC12CC(NC(=O)c3cc(C(F)F)no3)(C1)C2 [Compound 654, N-{3-[2-(4-chloro-3-fluorophenoxy)acetamido]bicyclo[1.1.1]pentan-1-yl}-3-(difluoromethyl)-1,2-oxazole-5-carboxamide]
The EC50 of the first is higher: greater than 2000 nM for the first, 50 to 250 nM for the second. The second is the more potent here.

`O=C(COc1ccc(Cl)c(F)c1)NC12CCC(NC(=O)c3ccccc3F)(CC1)[C@@H](O)C2` [Compound 483, N-{(2S)-4-[2-(4-chloro-3-fluorophenoxy)acetamido]-2-hydroxybicyclo[2.2.2]octan-1-yl}-2-fluorobenzamide] and `O=C(COc1ccc(Cl)c(F)c1)NC12CCC(NC(=O)c3ccccc3)(CC1)[C@@H](O)C2` [Compound 484, N-{(2S)-4-[2-(4-chloro-3-fluorophenoxy)acetamido]-2-hydroxybicyclo[2.2.2]octan-1-yl}benzamide] fall in the same range of EC50: 50 to 250 nM for the first, 50 to 250 nM for the second.

`O=C(COc1ccc(Cl)c(F)c1)NC12CC(NC(=O)c3csc(C(F)(F)F)n3)(C1)C2` [Compound 641, N-{3-[2-(4-chloro-3-fluorophenoxy)acetamido]bicyclo[1.1.1]pentan-1-yl}-2-(trifluoromethyl)-1,3-thiazole-4-carboxamide] and `O=C(COc1ccc(Cl)c(F)c1)NC12CCC(NC(=O)c3csc(C(F)(F)F)n3)(CC1)CC2O` (stereo not drawn) [Compound 466, N-{4-[2-(4-chloro-3-fluorophenoxy)acetamido]-3-hydroxybicyclo[2.2.2]octan-1-yl}-2-(trifluoromethyl)-1,3-thiazole-4-carboxamide] cannot be ordered by EC50: less than 50 nM for the first, less than 50 nM for the second.

Compared with `Cc1nc(C(F)(F)F)c(C(=O)NC23CCC(NC(=O)COc4ccc(Cl)c(F)c4)(CC2)C(O)C3)s1` (stereo not drawn) [Compound 504, N-{4-[2-(4-chloro-3-fluorophenoxy)acetamido]-3-hydroxybicyclo[2.2.2]octan-1-yl}-2-methyl-4-(trifluoromethyl)-1,3-thiazole-5-carboxamide], `O=C(COc1ccc(Cl)c(F)c1)NC12CCC(NC(=O)c3ccc(OC(F)(F)F)cn3)(CC1)CC2O` (stereo not drawn) [Compound 480, N-{4-[2-(4-chloro-3-fluorophenoxy)acetamido]-3-hydroxybicyclo[2.2.2]octan-1-yl}-5-(trifluoromethoxy)pyridine-2-carboxamide] is lower in EC50: 50 to 250 nM for the first, less than 50 nM for the second. The second is the more potent here.

First: O=C(COc1ccc(Cl)c(F)c1)NC12CCC(NC(=O)c3cnc(C4CC4)cn3)(CC1)C[C@@H]2O [Compound 653, N-{(3S)-4-[2-(4-chloro-3-fluorophenoxy)acetamido]-3-hydroxybicyclo[2.2.2]octan-1-yl}-5-cyclopropylpyrazine-2-carboxamide]
Second: O=C(COc1ccc(Cl)c(F)c1)NC12CCC(NC(=O)c3cnc(C(F)F)cn3)(CC1)[C@H](O)C2 (single isomer, unassigned) [Compound 235]
The EC50 of the first is higher: 250 to 1000 nM for the first, 50 to 250 nM for the second.

First: CCc1cc(C(=O)NC23CC(NC(=O)COc4ccc(Cl)c(F)c4)(C2)C3)[nH]n1 [Compound 275, N-{3-[2-(4-chloro-3-fluorophenoxy)acetamido]bicyclo[1.1.1]pentan-1-yl}-3-ethyl-1H-pyrazole-5-carboxamide]
Second: CCCc1cnc(C(=O)NC23CC(NC(=O)COc4ccc(Cl)c(F)c4)(C2)C3)cn1 [Compound 334, N-{3-[2-(4-chloro-3-fluorophenoxy)acetamido]bicyclo[1.1.1]pentan-1-yl}-5-propylpyrazine-2-carboxamide]
The EC50 of the first is higher: 50 to 250 nM for the first, less than 50 nM for the second.

First: O=C(COc1ccc(Cl)c(F)c1)NC12CC(Nc3cnccn3)(C1)C2 [Compound 725, 2-(4-chloro-3-fluorophenoxy)-N-{3-[(pyrazin-2-yl)amino]bicyclo[1.1.1]pentan-1-yl}acetamide]
Second: O=C(COc1ccc(Cl)c(F)c1)NC12CC(NC(=O)c3cnccn3)(C1)C2 [Compound 175, N-{3-[2-(4-chloro-3-fluorophenoxy)acetamido]bicyclo[1.1.1]pentan-1-yl}pyrazine-2-carboxamide]
The EC50 of the first is higher: 1000 to 2000 nM for the first, 250 to 1000 nM for the second.

Compared with `O=C(COc1ccc(Cl)c(F)c1)NC12CC(NC(=O)c3ccc(Cl)cn3)(C1)C2` [Compound 686, 5-chloro-N-{3-[2-(4-chloro-3-fluorophenoxy)acetamido]bicyclo[1.1.1]pentan-1-yl}pyridine-2-carboxamide], `O=C(COc1ccc(Cl)c(F)c1)NC12CC(NC(=O)c3cc(O)ccn3)(C1)C2` [Compound 183, N-{3-[2-(4-chloro-3-fluorophenoxy)acetamido]bicyclo[1.1.1]pentan-1-yl}-4-hydroxypyridine-2-carboxamide] is higher in EC50: less than 50 nM for the first, 1000 to 2000 nM for the second.

First: O=C(COc1ccc(Cl)c(F)c1)NC12CC(NC(=O)c3ccc4ccccc4n3)(C1)C2 [Compound 586, N-{3-[2-(4-chloro-3-fluorophenoxy)acetamido]bicyclo[1.1.1]pentan-1-yl}quinoline-2-carboxamide]
Second: CCOc1ccc(C(=O)NC23CC(NC(=O)COc4ccc(Cl)c(F)c4)(C2)C3)cc1 [Compound 351, N-{3-[2-(4-chloro-3-fluorophenoxy)acetamido]bicyclo[1.1.1]pentan-1-yl}-4-ethoxybenzamide]
The EC50 of the first is lower: less than 50 nM for the first, 50 to 250 nM for the second.

First: O=C(COc1ccc(Cl)c(F)c1)NC12CC(Nc3cccc4cnccc34)(C1)C2 [Compound 490, 2-(4-chloro-3-fluorophenoxy)-N-{3-[(isoquinolin-5-yl)amino]bicyclo[1.1.1]pentan-1-yl}acetamide]
Second: O=C(COc1ccc(Cl)c(F)c1)NC12CC(NC(=O)c3cc4ncccn4n3)(C1)C2 [Compound 122, N-{3-[2-(4-chloro-3-fluorophenoxy)acetamido]bicyclo[1.1.1]pentan-1-yl}pyrazolo[1,5-a]pyrimidine-2-carboxamide]
The EC50 of the first is lower: 50 to 250 nM for the first, 1000 to 2000 nM for the second.

`O=C(COc1ccc(Cl)c(Cl)c1)NC12CC(Nc3cnc(C(F)(F)F)cn3)(C1)C2` [Compound 101, 2-(3,4-dichlorophenoxy)-N-(3-{[5-(trifluoromethyl)pyrazin-2-yl]amino}bicyclo-[1.1.1]pentan-1-yl)acetamide] and `O=C(COc1ccc(Cl)c(F)c1)NC12CC(Nc3cnn(CC(F)(F)F)c(=O)c3Cl)(C1)C2` [Compound 416, 2-(4-chloro-3-fluorophenoxy)-N-(3-{[5-chloro-6-oxo-1-(2,2,2-trifluoroethyl)-1,6-dihydropyridazin-4-yl]amino}bicyclo[1.1.1]pentan-1-yl)acetamide] cannot be ordered by EC50: greater than 2000 nM for the first, greater than 2000 nM for the second.

`CCOC(=O)c1cc(C(=O)NC23CC(NC(=O)COc4ccc(Cl)c(F)c4)(C2)C3)ccn1` [Compound 279, ethyl 4-({3-[2-(4-chloro-3-fluorophenoxy)acetamido]bicyclo[1.1.1]pentan-1-yl}carbamoyl)pyridine-2-carboxylate] and `CC(O)c1ncc(C(=O)NC23CC(NC(=O)COc4ccc(Cl)c(F)c4)(C2)C3)s1` (stereo not drawn) [Compound 476, N-{3-[2-(4-chloro-3-fluorophenoxy)acetamido]bicyclo[1.1.1]pentan-1-yl}-2-(1-hydroxyethyl)-1,3-thiazole-5-carboxamide] fall in the same range of EC50: 250 to 1000 nM for the first, 250 to 1000 nM for the second.

`O=C(COc1ccc(Cl)c(Cl)c1)NC12CCC(NC(=O)c3cc(C(F)F)no3)(CC1)C[C@@H]2O` [Compound 758, N-{(3S)-4-[2-(3,4-dichlorophenoxy)acetamido]-3-hydroxybicyclo[2.2.2]octan-1-yl}-3-(difluoromethyl)-1,2-oxazole-5-carboxamide] and `O=C(COc1ccc(Cl)c(F)c1)NC12CCC(NC(=O)c3cnc(C(F)F)cn3)(CC1)C(O)C2` (stereo not drawn) [Compound 195, N-{4-[2-(4-chloro-3-fluorophenoxy)acetamido]-2-hydroxybicyclo[2.2.2]octan-1-yl}-5-(difluoromethyl)pyrazine-2-carboxamide] cannot be ordered by EC50: less than 50 nM for the first, less than 50 nM for the second.

`Cc1cc(C(=O)NC23CCC(NC(=O)COc4ccc5c(c4)OC(F)(F)O5)(CC2)[C@@H](O)C3)on1` [Compound 636, N-[(3S)-4-{2-[(2,2-difluoro-2H-1,3-benzodioxol-5-yl)oxy]acetamido}-3-hydroxybicyclo[2.2.2]octan-1-yl]-3-methyl-1,2-oxazole-5-carboxamide] and `O=C(COc1ccc2c(c1)OC(F)(F)O2)NC12CCC(NC(=O)c3cccc(F)c3)(CC1)C[C@@H]2O` [Compound 635, N-[(3S)-4-{2-[(2,2-difluoro-2H-1,3-benzodioxol-5-yl)oxy]acetamido}-3-hydroxybicyclo[2.2.2]octan-1-yl]-3-fluorobenzamide] fall in the same range of EC50: 250 to 1000 nM for the first, 250 to 1000 nM for the second.

First: O=C(COc1ccc(Cl)cc1)NC12CC(NC(=O)c3ccc(OC(F)(F)F)nc3)(C1)C2 [Compound 570, N-{3-[2-(4-chlorophenoxy)acetamido]bicyclo[1.1.1]pentan-1-yl}-6-(trifluoromethoxy)pyridine-3-carboxamide]
Second: Cc1cc(C(=O)NC23CC(NC(=O)COc4ccc(Cl)c(Cl)c4)(C2)C3)cnc1C [Compound 693, N-{3-[2-(3,4-dichlorophenoxy)acetamido]bicyclo[1.1.1]pentan-1-yl}-5,6-dimethylpyridine-3-carboxamide]
The EC50 of the first is lower: 50 to 250 nM for the first, 250 to 1000 nM for the second.

`Cn1nc(C(C)(C)C)cc1C(=O)NC12CC(NC(=O)COc3ccc(Cl)c(F)c3)(C1)C2` [Compound 338, 3-tert-butyl-N-{3-[2-(4-chloro-3-fluorophenoxy)acetamido]bicyclo[1.1.1]pentan-1-yl}-1-methyl-1H-pyrazole-5-carboxamide] and `O=C(COc1ccc(Cl)c(F)c1)NC12CC(NC(=O)c3cnc(C4=CCOCC4)o3)(C1)C2` [Compound 138, N-{3-[2-(4-chloro-3-fluorophenoxy)acetamido]bicyclo[1.1.1]pentan-1-yl}-2-(3,6-dihydro-2H-pyran-4-yl)-1,3-oxazole-5-carboxamide] fall in the same range of EC50: 50 to 250 nM for the first, 50 to 250 nM for the second.

With `Cc1cc2c(NC34CC(NC(=O)COc5ccc6c(c5)OC(F)(F)O6)(C3)C4)nccn2n1` [Compound 422, 2-[(2,2-difluoro-2H-1,3-benzodioxol-5-yl)oxy]-N-{3-[(2-methylpyrazolo[1,5-a]pyrazin-4-yl)amino]bicyclo[1.1.1]pentan-1-yl}acetamide] the EC50 was 50 to 250 nM.
